Experimental findings from patent US20240398781A1, “SPIROCYCLIC CYCLIC MODULATORS OF CHOLESTEROL BIOSYNTHESIS AND THEIR USE FOR PROMOTING REMYELINATION” (GENENTECH, INC., priority 2021, published 2024) are described below.

Each structure is given as a SMILES string.

Assay [1] deals with EBP (zymostenol accumulation in EpiSC-derived OPCs). Briefly: GC/MS-based sterol profiling, zymostenol accumulation in OPCs. The format is cell-based, mouse. The following applies: Mus musculus, 24 h, EpiSC-derived OPCs, 24 hr treatment, 8 doses from 0.15 nM to 333 nM; read-out: Zymostenol GCMS EC50. The method, then: To assess effects of treatments on OPCs, all treatments were assayed in two or more independent platings of epiblast stem cell-derived OPCs ([…]-derived OPCs were obtained using in vitro differentiation protocols and culture conditions described previously (Najm et al, 2011, Nature Methods). OPCs were expanded and frozen down in aliquots. OPCs were thawed into growth conditions for at least one passage before use in further assays. Sterols were monitored using a modified Folch wash protocol (Hubler et al, 2018, Nature). EpiSC-derived OPCs were plated at 100,000 cells per well in PO- and laminin-coated 96-well plates in N2B27 media without growth factors. After 24 hours, cells were rinsed with saline and plates were frozen. Cholesterol-d7 standard was then added to each well before drying under nitrogen stream and derivatization with 55 μl of bis(trimethylsilyl) trifluoroacetamide. After derivatization, 2 μl were analyzed by gas chromatography/mass spectrometry using an Agilent 5973 Network Mass Selective Detector equipped with a 6890 gas chromatograph system and a HP-5MS capillary column (30 m×0.25 mm×0.25 mm). Samples were analyzed in full scan mode using electron impact ionization; ion fragment peaks were integrated to calculate sterol abundance, and quantitation was relative to cholesterol-d7. […] All standards were obtained from Avanti Polar Lipids unless otherwise indicated. Calibration curves were generated by injecting varying concentrations of sterol standards and maintaining a fixed amount of cholesterol-D7. For normalized zymostenol accumulation results, the total amount of zymostenol measured after drug treatment was divided by the total amount of zymostenol accumulated after 24 hr treatment with 100 nM positive control reference.

In assay [2] the target is human emopamil binding protein and human 7-dehydrocholesterol reductase co-expressing cells (hEBP-DHCR7 membrane) (Homo sapiens (Human), UniProt Q15125). Briefly: Radioligand filter binding assay on hEBP-DHCR7 membrane. The conditions noted are these: [3H]-(S)-6-(2-Methyl-3-(6-(trifluoromethyl)pyridin-3-yl)propyl)-2-thia-6-azaspiro[3.4]octane 2,2-dioxide radioligand, HEK293 membrane co-expressing hEBP and hDHCR7. As for the experimental part: Membrane Preparation: human emopamil binding protein and human 7-dehydrocholesterol reductase co-expressing cells were generated by transient transfecting host human embryonic kidney (HEK) 293 cells with 2 DNA constructs containing each protein's coding sequence. Cells were suspension cultured at 37° C. with 5% CO2 in […] 293 Expression Medium (Thermofisher). Whole cell membrane was prepared by harvesting the cell pellet, adding cold membrane buffer (50 mM Tris, pH7.5, lx Roche COMPLETE EDTA-free protease inhibitor cocktail) 10 times volume of the cell pellets weight, lysing cell pellet on ice by using Dounce homogenizer, spinning at 200 g 4° C. for 15 min, collecting supernatant and spinning again at 25000 g 4° C. for 50 min, transferring pellet to Dounce homogenizer, re-suspending pellet by homogenizing in membrane buffer on ice to reach ˜25 mg/mL, then keeping whole cell membrane aliquots at −80° C.
Sequence of human emopamil binding protein and human 7-dehydrocholesterol reductase co-expressing cells (hEBP-DHCR7 membrane) (Q15125 whole entry): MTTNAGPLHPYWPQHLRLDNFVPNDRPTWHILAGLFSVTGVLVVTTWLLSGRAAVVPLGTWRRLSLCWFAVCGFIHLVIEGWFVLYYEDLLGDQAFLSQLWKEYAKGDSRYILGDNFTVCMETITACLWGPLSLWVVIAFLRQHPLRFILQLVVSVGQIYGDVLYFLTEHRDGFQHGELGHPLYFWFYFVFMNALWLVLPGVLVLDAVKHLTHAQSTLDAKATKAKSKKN
Compounds were prepared in a 96-well U bottom plate using an Echo550 machine and 10 mM compound DMSO stock solution, followed by an 8-dose 5-fold serial dilutions protocol with final testing compound concentration ranging from 0.06 to 5000 nM, with DMSO back fill to 100 nL/well and n=2. […] The UniFilter-96 GF/B plates were pre-treated by adding 50 μl/well of 0.3% (v/v) PEI to UniFilter-96 GF/B plates. The plates were sealed and incubated at 4° C. for 3 hrs. Then, the plates were washed with ice-cold assay buffer 3 times. The radioligand binding assay was prepared by adding assay buffer diluted hEBP-DHCR7 membrane at 66.7 μg/ml×150 μl/well into the 96-well compound plate to reach 10 μg membrane per well. Then, the assay buffer diluted [3H]—(S)-6-(2-Methyl-3-(6-(trifluoromethyl)pyridin-3-yl)propyl)-2-thia-6-azaspiro[3.4] octane 2,2-dioxide was added at 25 nM×50 μl/well. Following this, the plate was centrifuged at 1000 rpm for 30 secs. The plate was then sealed and agitated at 600 rpm at 22° C. for 5 min, and then incubated at 22° C. for 3 hrs. The incubation was stopped by transferring the binding solution to the pre-treated UniFilter-96 GF/B plate, vacuum filtrated, and then washed four times with ice-cold assay buffer. Following this, the plates were dried at 37° C. for 45 min. The plates were then sealed at the bottom. 40 μl/well of scintillation cocktail was added to the plates. A MicroBeta2 microplate counter was then used to read the plate and analyze the data. For reference and test compounds, the results are expressed as % Inhibition, using the normalization equation: N=100−100×(U−C2)/(C1−C2), where U is the unknown value, C1 is the average of high controls, and C2 is the average value of low controls. The IC50 was determined by fitting percentage of inhibition as a function of compound concentrations with Hill equation using XLfit. Results are expressed as hEBP-DHCR7 Ki (uM) in Table 4. Ki was calculated as described above. The asterix (*) indicates an isolated isomer or isolated group of isomers, but that the stereochemistry has not been assigned.

Usually EC50 stands for the concentration at which the effect is half-maximal. For orientation: Ki means the equilibrium dissociation constant of an inhibitor or competing ligand from its target. Read a low Ki as tighter binding. `CC(C)n1nc(-c2ccc(C(F)(F)F)cc2)nc1[C@@H]1CC[C@H](N2CCC3(C2)CS(=O)(=O)C3)C1` (single isomer, unassigned) [53C*]: the half-maximal effective concentration (EC50) in assay [1] is 1.1 nM. The compound also had an inhibitory constant (Ki) in assay [2] of 10 nM. The matching figures for `O=S1(=O)CC2(CCN([C@@H]3CCC[C@H](c4ccc(C(F)(F)F)nc4)C3)C2)C1` (single isomer, unassigned) [54A*]: 61 nM and 21 nM.

For the compound `O=S1(=O)CC2(CCN([C@H]3CCC[C@@H](c4ccc(C(F)(F)F)nc4)C3)C2)C1` (single isomer, unassigned) [54C*], the half-maximal effective concentration (EC50) in assay [1] is greater than 330 nM. Moreover, the inhibition constant (Ki) in assay [2] was found to be 347 nM.

Consider `CC(C)n1nc(C(F)(F)F)cc1[C@@H]1CCC[C@@H](N2CCC3(C2)CS(=O)(=O)C3)C1` (single isomer, unassigned) [61A*], for which the EC50 in assay [1] was greater than 330 nM. The compound further gave an inhibition constant (Ki) in assay [2] of 80 nM. In the case of `CC(C)n1nc(C(F)(F)F)cc1[C@H]1CCC[C@@H](N2CCC3(C2)CS(=O)(=O)C3)C1` (single isomer, unassigned) [61B*], in assay [1], the EC50 amounted to 100 nM. The compound further had a Ki in assay [2] of 23 nM. With `CC(C)n1nc(C(F)(F)F)cc1[C@H]1CCC[C@H](N2CCC3(C2)CS(=O)(=O)C3)C1` (single isomer, unassigned) [61D*], in assay [1], the 50% effective concentration (EC50) was greater than 330 nM. In assay [2], this compound gave a Ki of 344 nM. The matching figures for `O=S1(=O)CC2(CCN([C@@H]3CCCN(c4ccc(C(F)(F)F)nc4)C3)C2)C1` (single isomer, unassigned) [66A*]: greater than 330 nM and 1980 nM.

`O=S1(=O)CC2(CCN([C@H]3CCCN(c4ccc(C(F)(F)F)nc4)C3)C2)C1` (single isomer, unassigned) [66B*]: the EC50 in assay [1] amounted to 12 nM. The compound also registered a Ki in assay [2] of 61 nM. `O=S1(=O)CC[C@@]2(CCCN([C@H]3CC[C@@H](c4ccc(C(F)(F)F)cn4)CC3)C2)C1` (single isomer, unassigned) [68A*]: the concentration giving a half-maximal response (EC50) in assay [1] is 190 nM.

For the compound `O=S1(=O)CC[C@]2(CCCN([C@H]3CC[C@@H](c4ccc(C(F)(F)F)cn4)CC3)C2)C1` (single isomer, unassigned) [68C*], the EC50 in assay [1] was greater than 330 nM. Still for that read-out and setting: the figure for `O=S1(=O)CC[C@]2(CCCN([C@H]3CC[C@H](c4ccc(C(F)(F)F)cn4)CC3)C2)C1` (single isomer, unassigned) [68D*] is 42 nM. As to `O=S1(=O)CC[C@@]2(CCCN([C@H]3CC[C@H](c4cc(C(F)(F)F)nn4C4CC4)CC3)C2)C1` (single isomer, unassigned) [69B*], the EC50 in assay [1] was 23 nM. The affinity in assay [2], expressed as Ki, was 35 nM. The matching figures for `O=S1(=O)CC[C@]2(CCCN([C@H]3CC[C@H](c4cc(C(F)(F)F)nn4C4CC4)CC3)C2)C1` (single isomer, unassigned) [69D*]: 58 nM and 50 nM. As to `O=S1(=O)CC[C@@]2(CCCN([C@H]3CC[C@H](c4ccc(C(F)(F)F)nc4)CC3)C2)C1` (single isomer, unassigned) [71B*], the concentration for a half-maximal effect (EC50) in assay [1] is 280 nM.

Regarding `O=S1(=O)CC[C@]2(CCCN([C@H]3CC[C@@H](c4ccc(C(F)(F)F)nc4)CC3)C2)C1` (single isomer, unassigned) [71C*], the EC50 in assay [1] was determined as 62 nM.

With `O=S1(=O)CC[C@]2(CCCN([C@H]3CC[C@H](c4ccc(C(F)(F)F)nc4)CC3)C2)C1` (single isomer, unassigned) [71D*], the EC50 in assay [1] was greater than 330 nM. In the case of `CC(C)n1nc(C(F)(F)F)cc1[C@@H]1CCC[C@@H](N2CCC3(CC2)CS(=O)(=O)C3)C1` (single isomer, unassigned) [78A*], in assay [1], the EC50 is greater than 330 nM. Also, in assay [2], the affinity corresponds to a Ki of 71 nM. With `CC(C)[C@@H]1C[C@@H](N2CCC3(C2)CS(=O)(=O)C3)CCN1c1ccc(C(F)(F)F)nc1` (single isomer, unassigned) [82B*], the concentration giving a half-maximal response (EC50) in assay [1] was 19 nM. This compound registered an inhibition constant (Ki) in assay [2] of 46 nM. The matching figures for `CC(C)n1nc(C(F)(F)F)cc1[C@H]1CC[C@H](N2CCC[C@@]3(CCS(=O)(=O)C3)C2)CC1` (single isomer, unassigned) [91B*]: 60 nM and 310 nM.

Consider `CC(C)n1nc(C(F)(F)F)cc1[C@H]1CC[C@@H](N2CCC[C@]3(CCS(=O)(=O)C3)C2)CC1` (single isomer, unassigned) [91C*], for which the EC50 in assay [1] amounted to 8.2 nM.

On to `CC(C)n1nc(C(F)(F)F)cc1[C@H]1CC[C@H](N2CCC[C@]3(CCS(=O)(=O)C3)C2)CC1` (single isomer, unassigned) [91D*], for which the EC50 in assay [1] is 50 nM. For the compound `CC(C)C1C[C@H](N2CCC3(C2)CS(=O)(=O)C3)CCN1c1ccc(C(F)(F)F)nc1` (stereo in doubt) [82A*, 6-((2R,4R)-2-Isopropyl-1-(6-(trifluoromethyl)pyridin-3-yl)piperidin-4-yl)-2-thia-6-azaspiro[3.4]octane 2,2-dioxide], in assay [1], the EC50 stood at 280 nM. In assay [2], this compound gave a Ki of 89 nM. The matching figures for `CC(C)[C@H]1CC(N2CCC3(C2)CS(=O)(=O)C3)CCN1c1ccc(C(F)(F)F)nc1` (stereo in doubt) [82C*, 6-((2R,4S)-2-isopropyl-1-(6-(trifluoromethyl)pyridin-3-yl)piperidin-4-yl)-2-thia-6-azaspiro[3.4]octane 2,2-dioxide]: greater than 330 nM and 36 nM. The matching figures for `CC(C)[C@@H]1C[C@H](N2CCC3(C2)CS(=O)(=O)C3)CCN1c1ccc(C(F)(F)F)nc1` (stereo in doubt) [82D*, 6-((2S,4R)-2-isopropyl-1-(6-(trifluoromethyl)pyridin-3-yl)piperidin-4-yl)-2-thia-6-azaspiro[3.4]octane 2,2-dioxide]: greater than 330 nM and 100 nM.

For the compound `O=S1(=O)CC2(CCN([C@H]3CC[C@H](c4ccc(C(F)(F)F)nc4)CC3)CC2)C1` [81A*, 7-((1r,4r)-4-(6-(Trifluoromethyl)pyridin-3-yl)cyclohexyl)-2-thia-7-azaspiro[3.5]nonane 2,2-dioxide], the EC50 in assay [1] is 36 nM. In assay [2], this compound gave a Ki of 85 nM. Consider `O=S1(=O)CC2(CCN([C@H]3CC[C@H](c4ccnc(C(F)(F)F)c4Cl)CC3)C2)C1` [Compound 92A, 6-((1r,4r)-4-(3-Chloro-2-(trifluoromethyl)pyridin-4-yl)cyclohexyl)-2-thia-6-azaspiro[3.4]octane 2,2-dioxide], for which, in assay [1], the 50% effective concentration (EC50) came out at 36 nM. Same read-out and setting: the figure for `O=S1(=O)CC2(CCN([C@H]3CC[C@@H](c4ccnc(C(F)(F)F)c4Cl)CC3)C2)C1` [Compound 92B, 6-((1s,4s)-4-(3-chloro-2-(trifluoromethyl)pyridin-4-yl)cyclohexyl)-2-thia-6-azaspiro[3.4]octane 2,2-dioxide] is 5.2 nM. On the same count and under the same terms, in the case of `O=S1(=O)CC2(CCCN([C@H]3CC[C@H](c4ccnc(C(F)(F)F)c4)CC3)C2)C1` [Compound 93, 6-((1r,4r)-4-(2-(Trifluoromethyl)pyridin-4-yl)cyclohexyl)-2-thia-6-azaspiro[3.5]nonane 2,2-dioxide] it was 12 nM.
